“Also recorded” adds a separate entry of the source.
Legend:
A549b cells [1] = test: Proliferation of A549b cells after OLIGO/siRNA transfection (cell counting); type: cell-based, human
Procedure: Cultured cell lines were maintained in minimum essential medium a with nucleosides plus 10% fetal bovine serum and penicillin (50 units/mL)/streptomycin (50 mg/L) (growth medium). Cultures were incubated in a humidified atmosphere of 5% CO2 at 37° C. Cultured cell lines were maintained and cytotoxicity assays conducted as described previously (3). Rapidly proliferating cells were utilized for establishing cultures of experimental cells, which were allowed to plate overnight in 25-cm^2 flasks prior to manipulation. An established cell line of non-small-cell lung carcinoma (NSCLC), A549b, which was propagated by serial dilution from a single cell of an A549 parent cell line, was used for the establishment of antisense activity of oligonucleotides. This cell line proliferates with a mean generation time of approximately 20 hours, and is capable of forming tumours in immunodeficient mice with a take rate of greater than 90%. Therefore, this cell line is a good model system that can be used in both in vitro and in vivo experiments to test the activity of OLIGOs.
OLIGOs were introduced into cells with the use of Lipofectamine 2000 (LFA2K) (Invitrogen, Burlington, Ontario, Canada). OLIGOs were mixed with LFA2K at a ratio of 0.2 μg/ml per 10 nM OLIGO. The mixture was prepared at 11× the final concentration to which cells were exposed, so that 200 μL was added to 2 mL of medium in which cells were plated. As controls, cells were exposed to medium alone (no treatment), LFA2K alone at concentrations equivalent to those used in combination with OLIGOs (in some experiments only the maximum LFA2K concentration was used as a control), or OLIGO having no complementarity with any human mRNA. The OLIGO/LFA2K mixtures were then incubated at room temperature for 20 minutes, according to instructions supplied with the LFA2K, followed by addition of the OLIGOs to the cell medium. The OLIGO/LFA2K mix was then incubated (37° C.) on the cells for 4 hours, after which a second volume of medium was added. Cells were then incubated for 20 hours. Following this incubation, the OLIGO-containing medium was replaced with drug-free medium (i.e. medium without OLIGOs) and the cells were incubated for an additional 4 days. Following the 4-day incubation, the proliferation of the treated cells (fold-increase in cell number) was calculated as a percentage of that of control cells. Cell numbers were enumerated on an electronic particle counter (Beckman Coulter, Mississauga, ON). For the purpose of determining the anti-proliferative effect of antisense OLIGOs, the proliferation of cells treated with antisense OLIGOs was calculated as a percent of that of cells treated with an equivalent concentration of non-complementary control OLIGO (in this case OLIGO 32) mixed with an equivalent amount of LFA2K.
OLIGO-containing medium was removed and replaced with fresh medium. Cells were incubated for 4 days, at which time cell number was counted. Proliferation was calculated as a percent of non-targeting OLIGO-treated controls.
Cells were incubated for 4 days, at which time cell number was counted. Proliferation was calculated as a percent of controls.

A549b cells [2] = test: cells; type: cell-based, human; conditions: for enhancement of cisplatin (words): BR1 ASO pretreatment, FIGS. 38, 50
Procedure: OLIGOs were introduced into cells with the use of Lipofectamine 2000 (LFA2K) (Invitrogen, Burlington, Ontario, Canada). OLIGOs were mixed with LFA2K at a ratio of 0.2 μg/ml per 10 nM OLIGO. The mixture was prepared at 11× the final concentration to which cells were exposed, so that 200 μL was added to 2 mL of medium in which cells were plated. After incubating at room temperature for 20 minutes, according to manufacturer's instructions, the OLIGOs were added to the cell medium. The OLIGO/LFA2K mix was then incubated (37° C.) on the cells for 4 hours, after which a second volume of medium was added. Cells were then incubated for 20 hours. Following this incubation, the OLIGO-containing medium was replaced with OLIGO-free medium.
For cells treated with the drug olaparib, for the purposes of determining whether inhibitory activity was enhanced by the OLIGO pretreatment, olaparib was added at this time, in concentrations of from 0.01 μM to 3 μM. At this point, replicate flasks from the OLIGO-treatment were used to enumerate cell content, as this varied among treatments over the initial 24-hour exposure. This was done so that the effect of treatment with olaparib could be ascertained based on the cell population that was present at the time of initiation of exposure to olaparib. Exposure to the olaparib was initiated by addition of 0.2-volume of a preparation of the drug, at 6× final concentration in growth medium, to the fresh drug-free medium on the cells (1 ml of drug into 5 ml of medium). Following a further 4-day incubation, the proliferation of the treated cells (fold-increase in cell number) was calculated as a percentage of that of control cells. Cell numbers were enumerated on an electronic particle counter (Beckman Coulter, Mississauga, ON). As indicated in Example 1, for the purpose of determining the anti-proliferative effect of antisense OLIGOs alone, the proliferation of cells treated with antisense OLIGOs was calculated as a percent of that of cells treated with an equivalent concentration of non-complementary control OLIGO (in this case OLIGO 32). However, for the purpose of determining the anti-proliferative effect of olaparib against antisense or non-complementary (control) OLIGO-treated cells, the proliferation was calculated as a percent of cells treated with the respective OLIGO.
These experiments were carried out essentially as described in Example 3, with the following changes. The drug tested was cisplatin instead of olaparib, and cisplatin was tested in concentrations ranging from 0.5 μM to 2 μM.
These experiments were carried out essentially as described in Example 3, with the following changes. The drug tested was melphalan in concentrations ranging from 2 μM to 10 μM.
These experiments were carried out essentially as described in Example 3, with the following changes. The drug tested was carboplatin at concentrations ranging from 5 μM to 40 μM.
These experiments were carried out essentially as described in Example 3, with the following changes. The drug tested was oxaliplatin was tested in concentrations ranging from 0.2 μM to 2.5 μM.
Cisplatin was added to the final concentration indicated, and as described in Example 3. Cells were incubated for 4 days, at which time cell number was counted. Proliferation was calculated as a percent of siRNA-treated, non-cisplatin-treated controls.

TS mRNA = test: RT-qPCR of TS mRNA in A549 cells after OLIGO transfection; type: cell-based, human; conditions: 20 nM OLIGO, 24 hours post-transfection; FIG. 16
Procedure: Briefly, A549 cells seeded at a density of 2.0×10^5 per flask were transfected with 20 nM of OLIGO specific for each target or control OLIGO using Lipofectamine 2000 as the transfection reagent. Twenty four hours post-transfection mRNA was extracted and reverse transcribed into cDNA. RT-qPCR was performed for target mRNA levels using TaqMan reagents according to established protocols.

[3] = test system: DU145 human prostate cancer cells; conditions: BR1 pretreatment; FIG. 37
Procedure: Cells were treated for 4 hours with ASO, after which one volume of medium was added and cells were incubated for a further 20 hours. ASO-containing medium was removed and replaced with fresh medium. Cells were then incubated for 4 days and cell numbers assessed. Proliferation of BR1-treated cells was calculated as a percent of proliferation of non-targeting ASO-treated control cells. Initial cell density varied among cell lines.

5′-guaucuCTTGACGTuccuua-3′ (GUAUCUCTTGACGTUCCUUA; gapmer, lower-case wings modified, type not given here) [BR1]
anti-proliferative effect as single agent (A549b cells [1]; A549/A549b cells, 4 h transfection, counted after 4 d, vs non-targeting control OLIGO): inhibited proliferation on its own; also recorded: greater inhibition as a single agent; also recorded: inhibit proliferation of human non-small cell lung cancer A549 cells in a concentration-dependent manner
inhibit proliferation of A549b cells (A549b cells [1]; single agent, mixed with 0.2 μg/mL LFA2K, compared with control OLIGO 32, FIG. 1): over 50%
enhanced inhibition of proliferation by olaparib (% decrease in the IC50 value) (A549b cells [2]; A549 cells, ASO pre-incubation, FIGS. 34, 35): up to 95%
enhancement of cisplatin (words) (A549b cells [2]; A549 cells): enhances cisplatin
enhancement of cisplatin (words) (A549b cells [2]; A549 cells, listed as BR-1): enhances the antiproliferative activity of cisplatin or melphalan
enhanced the anti-proliferative effect of olaparib (A549b cells [2]; BR1 pretreatment, at a given concentration of olaparib, FIG. 2): over 40%
enhancement of veliparib (A549b cells [2]; BR1 vs ODN 32, A549 cells, FIGS. 36, 37): enhances veliparib
effect on TS mRNA level (TS mRNA): no significant effect on TS mRNA
enhancement of veliparib [3]: enhances veliparib
